# Results: US9226916B2, “Pyrrolidine derivatives” (HOFFMANN-LA ROCHE INC., priority 2009, dated 2016)
# Target: T1, recombinant human NK3 receptor (Homo sapiens, UniProt P29371)
# T1 construct: expressed in transfected cells; host or cells: HEK293 cells, transient expression; membranes
# T1 sequence (P29371 1-465): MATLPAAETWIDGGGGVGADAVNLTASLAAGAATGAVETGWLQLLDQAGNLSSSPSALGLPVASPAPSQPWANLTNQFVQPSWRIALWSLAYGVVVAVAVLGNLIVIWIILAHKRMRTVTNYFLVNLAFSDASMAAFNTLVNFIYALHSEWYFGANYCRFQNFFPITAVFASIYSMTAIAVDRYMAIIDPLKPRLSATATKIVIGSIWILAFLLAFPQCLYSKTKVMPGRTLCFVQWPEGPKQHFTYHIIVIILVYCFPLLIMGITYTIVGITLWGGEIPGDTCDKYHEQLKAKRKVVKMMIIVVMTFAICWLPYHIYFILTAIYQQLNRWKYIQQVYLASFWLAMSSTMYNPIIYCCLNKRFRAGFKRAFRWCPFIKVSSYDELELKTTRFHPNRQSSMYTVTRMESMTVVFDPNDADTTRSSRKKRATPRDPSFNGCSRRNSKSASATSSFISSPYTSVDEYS
# Experiment: [3H]SR142801 competition binding assay
# Conditions: not given
row,SMILES,Ki
1,"CN(C(=O)Oc1ccc(F)cc1)[C@@H]1CN(C(=O)C2CCN(c3ccc(C(N)=O)cn3)CC2)C[C@H]1c1ccc(Cl)cc1 [Example 196, [(3S,4R)-1-(5′-Carbamoyl-3,4,5,6-tetrahydro-2H-[1,2′]bipyridinyl-4-carbonyl)-4-(4-chloro-phenyl)-pyrrolidin-3-yl]-methyl-carbamic acid 4-fluoro-phenyl ester]",2.2 nM
2,"CN(C(=O)Oc1ccc(F)cc1)[C@@H]1CN(C(=O)[C@H]2CC[C@H](O)CC2)C[C@H]1c1ccc(Cl)cc1 [Example 89, [(3S,4R)-4-(4-Chloro-phenyl)-1-(4-hydroxy-cyclohexanecarbonyl)-pyrrolidin-3-yl]-methyl-carbamic acid 4-fluoro-phenyl ester]",20.2 nM
3,"CN(C(=O)Oc1ccc(F)cc1)[C@@H]1CN(C(=O)C2CCOCC2)C[C@H]1c1ccc(Cl)cc1 [Example 90, [(3S,4R)-4-(4-Chloro-phenyl)-1-(tetrahydro-pyran-4-carbonyl)-pyrrolidin-3-yl]-methyl-carbamic acid 4-fluoro-phenyl ester]",7.9 nM
4,"CN(C(=O)Oc1ccc(F)cc1)[C@@H]1CN(C(=O)C2CCN(c3ccc(F)cn3)CC2)C[C@H]1c1ccc(Cl)c(Cl)c1 [Example 309, [(3S,4R)-4-(3,4-Dichloro-phenyl)-1-(5′-fluoro-3,4,5,6-tetrahydro-2H-[1,2′]bipyridinyl-4-carbonyl)-pyrrolidin-3-yl]-methyl-carbamic acid 4-fluoro-phenyl ester]",0.5 nM
5,"CN(C(=O)OCCCC(F)(F)F)[C@H]1CN(C(=O)C2CCN(c3ccc(C#N)cn3)CC2)C[C@@H]1c1ccc(Cl)cc1 [Example 128, [(3R,4S)-4-(4-Chloro-phenyl)-1-(5′-cyano-3,4,5,6-tetrahydro-2H-[1,2′]bipyridinyl-4-carbonyl)-pyrrolidin-3-yl]-methyl-carbamic acid 4,4,4-trifluoro-butyl ester]",68 nM
6,"CN(C(=O)Oc1ccc(F)cc1)[C@@H]1CN(C(=O)C2CCN(c3ncccn3)CC2)C[C@H]1c1ccc(Cl)cc1 [Example 183, [(3S,4R)-4-(4-Chloro-phenyl)-1-(1-pyrimidin-2-yl-piperidine-4-carbonyl)-pyrrolidin-3-yl]-methyl-carbamic acid 4-fluoro-phenyl ester]",16 nM
7,"CN(C(=O)Oc1ccc(F)cc1)[C@@H]1CN(C(=O)C2CCN(C(=O)[C@@H]3CC(=O)N3)CC2)C[C@H]1c1ccc(Cl)cc1 [Example 319, {(3S,4R)-4-(4-Chloro-phenyl)-1-[1-((S)-4-oxo-azetidine-2-carbonyl)-piperidine-4-carbonyl]-pyrrolidin-3-yl}-methyl-carbamic acid 4-fluoro-phenyl ester]",10.6 nM
8,"CN(C(=O)Oc1ccc(F)cc1)[C@@H]1CN(C(=O)C2CCN(c3ncccc3C#N)CC2)C[C@H]1c1ccc(Cl)cc1 [Example 186, [(3S,4R)-4-(4-Chloro-phenyl)-1-(3′-cyano-3,4,5,6-tetrahydro-2H-[1,2′]bipyridinyl-4-carbonyl)-pyrrolidin-3-yl]-methyl-carbamic acid 4-fluoro-phenyl ester]",6 nM
9,"CN(C(=O)Oc1ccc(F)cc1)[C@@H]1CN(C(=O)C2CCN(C(=O)C3CCC(=O)NC3)CC2)C[C@H]1c1ccc(Cl)c(Cl)c1 (stereo partly drawn) [Example 281, {(3S,4R)-4-(3,4-Dichloro-phenyl)-1-[1-(6-oxo-piperidine-3-carbonyl)-piperidine-4-carbonyl]-pyrrolidin-3-yl}-methyl-carbamic acid 4-fluoro-phenyl ester]",0.3 nM
10,"CN(C(=O)OCC1CCOCC1)[C@H]1CN(C(=O)C2CCN(C(=O)C3(C)CC3)CC2)C[C@@H]1c1ccc(Cl)c(Cl)c1 (racemic) [Example 31, rac-{(3R,4S)-4-(3,4-Dichloro-phenyl)-1-[1-(1-methyl-cyclopropanecarbonyl)-piperidine-4-carbonyl]-pyrrolidin-3-yl}-methyl-carbamic acid tetrahydro-pyran-4-ylmethyl ester]",11.6 nM
11,"CN(C(=O)Oc1ccc(F)cc1)[C@@H]1CN(C(=O)C2CCN(c3ccc(C#N)nc3)CC2)C[C@H]1c1ccc(Cl)cc1 [Example 198, [(3S,4R)-4-(4-Chloro-phenyl)-1-(6′-cyano-3,4,5,6-tetrahydro-2H-[1,3]bipyridinyl-4-carbonyl)-pyrrolidin-3-yl]-methyl-carbamic acid 4-fluoro-phenyl ester]",0.5 nM
12,"CN(C(=O)Oc1ccc(F)cc1)[C@@H]1CN(C(=O)C2CCN(C(=O)C3(C)COC3)CC2)C[C@H]1c1ccc(F)cc1 [Example 286, {(3S,4R)-4-(4-Fluoro-phenyl)-1-[1-(3-methyl-oxetane-3-carbonyl)-piperidine-4-carbonyl]-pyrrolidin-3-yl}-methyl-carbamic acid 4-fluoro-phenyl ester]",25.4 nM
13,"CC(C)N1CC(C(=O)N2CCC(C(=O)N3C[C@@H](N(C)C(=O)Oc4ccc(F)cc4)[C@H](c4ccc(Cl)c(Cl)c4)C3)CC2)CCC1=O (stereo partly drawn) [Example 282, {(3S,4R)-4-(3,4-Dichloro-phenyl)-1-[1-(1-isopropyl-6-oxo-piperidine-3-carbonyl)-piperidine-4-carbonyl]-pyrrolidin-3-yl}-methyl-carbamic acid 4-fluoro-phenyl ester]",2 nM
14,"CN(C(=O)Oc1ccc(F)cc1)[C@@H]1CN(C(=O)C2CCN(C(=O)C3CC3(F)F)CC2)C[C@H]1c1ccc(Cl)c(Cl)c1 (stereo partly drawn) [Example 274, {(3S,4R)-4-(3,4-Dichloro-phenyl)-1-[1-(2,2-difluoro-cyclopropanecarbonyl)-piperidine-4-carbonyl]-pyrrolidin-3-yl}-methyl-carbamic acid 4-fluoro-phenyl ester]",0.9 nM
15,"CCC(=O)N1CCC(C(=O)N2C[C@H](c3ccc(Cl)c(Cl)c3)[C@@H](N(C)C(=O)Oc3ccc(F)cc3)C2)CC1 (racemic) [Example 73, rac-[(3R,4S)-4-(3,4-Dichloro-phenyl)-1-(1-propionyl-piperidine-4-carbonyl)-pyrrolidin-3-yl]-methyl-carbamic acid 4-fluoro-phenyl ester]",0.8 nM
16,"CN(C(=O)Oc1ccc(F)cc1)[C@H]1CN(C(=O)C2CCN(c3ccc(C#N)cn3)CC2)C[C@@H]1c1ccc(Cl)c(Cl)c1 (racemic) [Example 80, rac-[(3R,4S)-1-(5′-Cyano-3,4,5,6-tetrahydro-2H-[1,2′]bipyridinyl-4-carbonyl)-4-(3,4-dichloro-phenyl)-pyrrolidin-3-yl]-methyl-carbamic acid 4-fluoro-phenyl ester]",0.3 nM
17,"CN(C(=O)Oc1ccc(F)cc1)[C@@H]1CN(C(=O)C2CCS(=O)(=O)CC2)C[C@H]1c1ccc(Cl)cc1 [Example 93, [(3S,4R)-4-(4-Chloro-phenyl)-1-(1,1-dioxo-hexahydro-1λ^6-thiopyran-4-carbonyl)-pyrrolidin-3-yl]-methyl-carbamic acid 4-fluoro-phenyl ester]",6.6 nM
18,"CCC(OC(=O)N(C)[C@@H]1CN(C(=O)C2CCN(c3ccc(C#N)cn3)CC2)C[C@H]1c1ccc(Cl)cc1)c1ccc(F)cc1 (stereo partly drawn) [Example 236, [(3S,4R)-4-(4-Chloro-phenyl)-1-(5′-cyano-3,4,5,6-tetrahydro-2H-[1,2′]bipyridinyl-4-carbonyl)-pyrrolidin-3-yl]-methyl-carbamic acid 1-(4-fluoro-phenyl)-propyl ester]",64.8 nM
19,"CN(C(=O)Oc1ccc(F)cc1)[C@@H]1CN(C(=O)C2CCN(c3cc(C#N)ccn3)CC2)C[C@H]1c1ccc(Cl)cc1 [Example 185, [(3S,4R)-4-(4-Chloro-phenyl)-1-(4′-cyano-3,4,5,6-tetrahydro-2H-[1,2′]bipyridinyl-4-carbonyl)-pyrrolidin-3-yl]-methyl-carbamic acid 4-fluoro-phenyl ester]",3 nM
20,"CN(C(=O)OCCCC(F)(F)C(F)(F)F)[C@H]1CN(C(=O)C2CCN(C(=O)C3(C)CC3)CC2)C[C@@H]1c1ccc(Cl)c(Cl)c1 (racemic) [Example 88, rac-{(3R,4S)-4-(3,4-Dichloro-phenyl)-1-[1-(1-methyl-cyclopropanecarbonyl)-piperidine-4-carbonyl]-pyrrolidin-3-yl}-methyl-carbamic acid 4,4,5,5,5-pentafluoro-pentyl ester]",8.3 nM

# Same assay, conditions: hNK-3 receptor affinity; membranes from HEK293 cells transiently expressing recombinant human NK3 receptor; [3H]SR142801; Cheng-Prussoff; read-out: Data Ki
row,Ki,SMILES
1,5.4 nM,"CN(C(=O)OCCC1CC1)[C@H]1CN(C(=O)C2CCN(C(=O)C3(C)CC3)CC2)C[C@@H]1c1ccc(Cl)c(Cl)c1 (racemic) [Example 25, rac-{(3R,4S)-4-(3,4-Dichloro-phenyl)-1-[1-(1-methyl-cyclopropanecarbonyl)-piperidine-4-arbonyl]-pyrrolidin-3-yl}-methyl-carbamic acid 2-cyclopropyl-ethyl ester]"
2,18.3 nM,"CN(C(=O)OC1CCOCC1)[C@@H]1CN(C(=O)C2CCN(c3ccc(C#N)cn3)CC2)C[C@H]1c1ccc(Cl)cc1 [Example 156, [(3S,4R)-4-(4-Chloro-phenyl)-1-(5′-cyano-3,4,5,6-tetrahydro-2H-[1,2′]bipyridinyl-4-carbonyl)-pyrrolidin-3-yl]-methyl-carbamic acid tetrahydro-pyran-4-yl ester]"
3,47.2 nM,"CN(C(=O)OC1(C)CCCC1)[C@@H]1CN(C(=O)C2CCN(c3ccc(C#N)cn3)CC2)C[C@H]1c1ccc(Cl)cc1 [Example 243, [(3S,4R)-4-(4-Chloro-phenyl)-1-(5′-cyano-3,4,5,6-tetrahydro-2H-[1,2′]bipyridinyl-4-carbonyl)-pyrrolidin-3-yl]-methyl-carbamic acid 1-methyl-cyclopentyl ester]"
